≈ marks a conversion by molar mass, not a printed value.

The test system of data set [1] is MRSA ATCC 43300. Kind of data set: MIC/MBC by broth dilution (CLSI). In kind it is cell-based, Staphylococcus aureus. In a few lines:
(§1)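 CLSI broth dilution used twofold compound series from 64 to 0.0625 µg/mL (stocks in water with 2.5% DMSO and 2.5% Tween-80) and a final inoculum of 5 × 10^5 CFU/mL, in triplicate. For MBC, 25 µL from wells without visible growth was plated on MH agar and cultured 24 h at 37 °C.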

The subject of the next data set is S. aureus 144. Kind of data set: MIC/MBC by broth dilution (CLSI). In kind it is cell-based. The note with it: Staphylococcus aureus; S. aureus 144 (clinical strain). In a few lines: as §1
(Dilution methods test growth across graded concentrations, often in twofold steps.)

In a further data set the test system is S. aureus AD3. Kind of data set: MIC/MBC by broth dilution (CLSI). It counts as cell-based. As to conditions: Staphylococcus aureus; S. aureus AD3 (clinical strain). In a few lines: as §1
The test system of a further data set is S. aureus ATCC 29213. The experiment in a line: MIC/MBC by broth dilution (CLSI). In kind it is cell-based. As to conditions: Staphylococcus aureus, ATCC29213. In short, it runs like this:
as §1

For data set [2], the system named is MRSA ATCC 43300. The experiment in a line: Constant concentration time–kill curves. In kind it is cell-based, Staphylococcus aureus. How it is done: Time–kill kinetic assays were performed, which were used to investigate the in vitro bactericidal kinetic effect of compounds 12c, 19c, 22c and tiamulin.
Time–kill curve assays were established with the MIC value to investigate the antibacterial effect of constant drug concentration on MRSA. […] MRSA ATCC 43300 was incubated in MH broth at 37 °C for 4.5 h and diluted to 1 × 10^6 CFU/mL in MH broth. The saline control group was subjected to the same schedule but 0.9% saline water was added instead of the test compound. All the samples were incubated in an oscillating thermostatic at 37 °C, and then 100 μL of the mixture was extracted to 900 μL of sterile saline (0.9%) at 0, 3, 6, 9, 12 and 24 h, respectively. Samples were serially diluted 10-fold in sterile saline (0.9%) and inoculated onto agar plates. The colonies were counted after incubation at 37 °C for 24 h. Three independent experiments were performed according to our previous work. Time–kill curves were constructed by plotting the log10 CFU per millilitre versus time, and the change in bacterial concentration was determined.

In data set [3] the test system is MRSA ATCC 43300. Kind of data set: Post-antibiotic effect (PAE). It counts as cell-based, Staphylococcus aureus. On the procedure: PAE has been considered as pharmacodynamic assistance which provides a reference for the rational formulation of dosing regimen. PAE refers to the temporary suppression of bacterial growth following transient antibiotic treatment. PAE assays were conducted for compounds 12c and 22c.
PAE is calculated from growth curves on the difference in time required for the number (1 log10 CFU/mL) of drug-exposed and unexposed microbes. […] The PAE values of compounds 12c and 22c increased with increasing incubation time.
PAE of compounds 12c and 22c on MRSA ATCC 43300 was determined using MH broth according to our previous work. The final concentration of MRSA was 1 × 10^6 CFU/mL by dilution with MH broth. Compounds 12c, 22c and tiamulin were supplemented in the suspension at a final concentration of 2 × MIC and 4 × MIC, respectively. The negative control group contained untreated MRSA bacterial cells. The test tubes were incubated with a 37 °C constant temperature vibration incubator for 1 and 2 h. After incubation, the test compound was removed from the sample by diluting 1000-fold with the preheated MH broth. Next, 100 μL of suspension from each culture was 10-fold diluted in sterile saline and inoculated on MH agar plates at 0, 2, 4, 6 and 8 h after inoculation. The number of colonies was calculated after incubation at 37 °C for 24 h. The experiments were performed in triplicate.

The next data set relates to 16-HBE cells. Kind of data set: Cytotoxicity MTT assay. In kind it is cell-based, human. The note with it: 1~8 μg/mL, 16 h. How it is done: (§2) The presence of compounds can influence cellular basic physiological processes, suppress proliferation and even reduce cell survival, etc. In the community, MRSA generally causes respiratory infection. Therefore, cytotoxicity was evaluated to explore the effect of compounds 12c and 22c on the viability of the respiratory tract cells 16-HBE (human bronchial epithelial cell line). RAW 264.7 (mouse peritoneal macrophage cell line) and Caco-2 (human epithelial colorectal adenocarcinoma cell line) were also used to evaluate the cytotoxicity of compounds 12c and 22c by MTT assay.
(§3) Cytotoxicity of the test compounds was assessed using the conventional MTT method. RAW 264.7 murine macrophage cells, Caco-2 cells and 16-HBE were used in this experiment. The cells were seeded into 96-well plates at a density of 1.0 × 10^5 cells per well. After 4 h at 37 °C, the cells were treated with compounds 12c and 22c at various concentrations and incubated at 37 °C for 16 h. Next, MTT (0.5 mg/mL in PBS, 100 μL/well) was added sequentially to each well in a humidified atmosphere of 95% air and 5% CO2 incubator and the incubation continued for an additional four hours. After incubation, the medium was peeled off and DMSO (150 μL/well) was added to dissolve the cells, and then the incubation was continued for 30 min. At the end of this period, the absorbance was measured at 490 nm by a microplate spectrophotometer (BIO-TEK Instruments, Winooski, VT, USA).
Background: Tetrazolium dyes change colour on reduction, which living cells bring about.

In another data set the test system is Caco-2 cells. The experiment in a line: Cytotoxicity MTT assay. In kind it is cell-based, human. The note with it: 1~8 μg/mL, 16 h. How it is done:
as §2, §3

For data set [4], the system named is MRSA ATCC 43300. Kind of data set: Neutropenic murine thigh infection model. In kind it is in vivo. As to conditions: neutropenic mice, 20 mg/kg, 24 h after dosing, n = 6/group. How it is done: Therefore, the in vivo efficacy of compounds 12c and 22c were assessed using the murine neutropenic thigh infection model. Mice groups treated with saline and tiamulin were chosen as the negative and positive controls.
Model experiments of neutropenic mouse thigh infection were manipulated as described in the literature. Female, six-week-old, specific-pathogen-free mice weighing approximately 23~26 g were used throughout the study. Mice were rendered neutropenic by injection of cyclophosphamide (Mead Johnson Pharmaceuticals, Evansville, IN) on day 4 (150 mg/kg) and day 1 (100 mg/kg) before the experiment. The neutrophil numbers in mice blood should be <0.1 × 10^9/L [34]. In total, 0.1 mL of MH broth of MRSA (10^7 CFU/mL) was inoculated into each thigh of the neutropenic mice. Mice were divided into 4 groups (6 mice per group), including control (sterile saline), compounds 12c, 22c and tiamulin groups. After 3 h post-infection, the corresponding drugs were injected into each mouse’s thigh. Mice were euthanized following intravenous injection for 24 h. Thigh tissue of each mouse was removed, collected, weighed and homogenized in 3 mL of ice sterile saline. Six ten-fold serial dilutions were performed and 25 μL of the bacterial solution from each tube was plated on MH agar plates. The resulting colonies were counted after 24 h incubation at 37 °C. The protocol for this study was reviewed and approved by the Institutional Animal Care and Use Committee of the South China Agricultural University.

By MBC is commonly meant the lowest tested concentration that kills the bacteria rather than only halting them. The low end stands for greater bactericidal potency, the high end for weaker bactericidal potency. Broadly, the MIC is the lowest concentration found to suppress growth. Usually melting point stands for the temperature, or range, at which the solid turns liquid. On to `C=C[C@]1(C)C[C@@H](OC(=O)CSc2ccc(Nc3nc(Cl)nc4c3cnn4-c3cccc(C)c3)cc2)[C@]2(C)[C@H](C)CC[C@]3(CCC(=O)[C@H]32)[C@@H](C)[C@@H]1O` [Compound 12c, 22-[4-(6-Chloro-1-(3-methylphenyl)-1H-pyrazolo[3,4-d]pyrimidine-4-yl)amino-Phenylsulfanyl]-22-deoxypleuromutilin], for which the melting point was 95 to 97 °C. Besides, the MBC with MRSA ATCC 43300 [1] (Staphylococcus aureus, MRSA ATCC 43300, 99.9% of the bacteria killed) is 0.5 µg/mL (≈ 0.686 µM). Moreover, the MIC in the data set on MRSA ATCC 43300 [1] (Staphylococcus aureus, MRSA ATCC 43300, broth dilution, 24 h, 37 °C, read-out: MIC) was determined as 0.25 µg/mL (≈ 0.343 µM). In addition, the MBC/MIC ratio with MRSA ATCC 43300 [1] (against MRSA) is not above 2. Besides, in the data set on S. aureus 144, the MBC worked out at 1 µg/mL (≈ 1.37 µM) and the MIC amounted to 0.5 µg/mL (≈ 0.686 µM). In the data set with S. aureus AD3, this compound yielded an MBC of 0.25 µg/mL (≈ 0.343 µM) and an MIC of 0.125 µg/mL (≈ 0.172 µM). The same compound came in with an MBC against S. aureus ATCC 29213 (S. aureus ATCC 29213) of 0.5 µg/mL (≈ 0.686 µM). In the data set with S. aureus ATCC 29213 (S. aureus ATCC 29213, broth dilution, 24 h, 37 °C), this compound yielded an MIC of 0.25 µg/mL (≈ 0.343 µM). In addition, in the data set on MRSA ATCC 43300 [2] (2 × MIC, 24 h incubation), the “MRSA killed in time–kill assay” value came to 99.99% and the “reduction of MRSA in time–kill assay” value is given as −4.51 log10 CFU/mL. Besides, the “reduction of MRSA in time–kill assay” value in the data set with MRSA ATCC 43300 [2] (4 × MIC) is recorded as −5.76 log10 CFU/mL. Further, in the data set on MRSA ATCC 43300 [2] (time–kill curves, 1 to 32 × MIC), the “type of bactericidal kinetics” value was “time-dependent”. The compound further came in with a PAE with MRSA ATCC 43300 [3] (2 × MIC, exposure for 1 h) of 0.37 h. For the same compound, in the data set with MRSA ATCC 43300 [3] (2 × MIC, exposure for 2 h), the PAE is listed as 1.72 h. The compound also yielded a PAE in the data set on MRSA ATCC 43300 [3] (4 × MIC, exposure for 1 h) of 0.43 h. The compound further returned a PAE in the data set on MRSA ATCC 43300 [3] (4 × MIC, exposure for 2 h) of 1.73 h. Further, in the data set with 16-HBE cells, the “effect on viability of 16-HBE cells” value was “did not affect the viability”. For the same compound, the “effect on viability of Caco-2 cells” value in the data set with Caco-2 cells is “did not affect the viability”. Moreover, in the data set on MRSA ATCC 43300 [4], the “reduction of MRSA load in thigh vs growth control” value is −0.79 log10 CFU/mL.

Source of the values: paper PMC10180054, “Design, Synthesis and Biological Evaluation of Novel Pleuromutilin Derivatives Containing 6-Chloro-1-R-1H-pyrazolo[3,4-d]pyrimidine-4-amino Side Chain” (Molecules, 2023).
